Experimental data reported in patent US20240336657A1, “G-ALPHA-S PEPTIDE INHIBITORS AND USES THEREOF” (The Regents of the University of California, priority 2021, published 2024).
Positions of bridges follow the written chain, without caps; N, C: chain ends. Non-standard residues stand in square brackets, D forms with d. Residues, ends and D or L forms follow the SMILES beside them. *: point of attachment. NH(CH2CH2O)2(CH2)6Cl = ClCCCCCCOCCOCCN*

How the values were obtained:
Gαs [1] = biological target: T1, Gαs (Homo sapiens, UniProt P63092); experiment: GDP dissociation assay ([3H]GDP); assay type: biochemical; design: made in house; host or cells: Escherichia coli BL21(DE3)
T1 sequence (P63092 1-380 isoform P63092-2): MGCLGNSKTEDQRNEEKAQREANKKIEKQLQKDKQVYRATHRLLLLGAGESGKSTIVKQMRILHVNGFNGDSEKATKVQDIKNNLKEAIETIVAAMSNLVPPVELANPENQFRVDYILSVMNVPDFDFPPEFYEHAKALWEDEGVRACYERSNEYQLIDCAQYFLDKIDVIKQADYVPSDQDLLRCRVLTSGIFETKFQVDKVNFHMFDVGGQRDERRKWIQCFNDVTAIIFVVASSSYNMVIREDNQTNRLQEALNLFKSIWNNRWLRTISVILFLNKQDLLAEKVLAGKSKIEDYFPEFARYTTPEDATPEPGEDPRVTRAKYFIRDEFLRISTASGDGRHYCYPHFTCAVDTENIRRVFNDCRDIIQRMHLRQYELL
Method: (§1) Gα proteins were diluted to 400 nM in the EDTA buffer (20 mM HEPES 7.5, 150 mM NaCl, 1 mM EDTA-Na 8.0, 2 mM DTT). [^3H]GDP (1 mCi/mL, 25.2 μM) was added to a final concentration of 1.2 μM, followed by cyclic peptides addition. After incubation at 20° C. for 30 minutes, the same volume of assay buffer ([…] HEPES-Na 7.5, 150 mM NaCl, 2 mM MgCl2, and 1 mM GDP) was added to initiate [^3H]GDP dissociation. At various points, […] was removed and mixed with 390 μL of ice-cold wash buffer (20 mM HEPES 7.5, 150 mM NaCl, 20 mM MgCl2). The mixture was immediately filtered through a mixed cellulose membrane (25 mm, 0.22 μm) held by a microanalysis filter holder (EMD Millipore). The membrane was washed by ice-cold wash buffer (500 μL×3), put in a 6-mL plastic vial and air-dried (room temperature 1.5 h). 5 mL of CytoScint-ES Liquid Scintillation Cocktail was added to each vial. After incubation overnight at room temperature, the vial was used for liquid scintillation counting with a LS 6500 Multi-Purpose Scintillation Counter.
The GDP dissociation curves were fitted by the software GraphPad Prism using the following equation to calculate the dissociation rates (koff): […]
in which “Y” is the radioactivity (Counts per minute) of the sample at time “X” (minutes), and Y0 is the calculated radioactivity of the sample at the time point 0.

GDP-bound Gαi1 = biological target: T2, GDP-bound Gαi1 (Homo sapiens, UniProt P63096); experiment: Bio-layer interferometry (BLI) binding; settings: highest concentration tested
T2 construct: hexahistidine (N, cleaved yes); made in house; host or cells: Escherichia coli BL21(DE3)
T2 sequence (P63096 with tags, fused parts or gaps): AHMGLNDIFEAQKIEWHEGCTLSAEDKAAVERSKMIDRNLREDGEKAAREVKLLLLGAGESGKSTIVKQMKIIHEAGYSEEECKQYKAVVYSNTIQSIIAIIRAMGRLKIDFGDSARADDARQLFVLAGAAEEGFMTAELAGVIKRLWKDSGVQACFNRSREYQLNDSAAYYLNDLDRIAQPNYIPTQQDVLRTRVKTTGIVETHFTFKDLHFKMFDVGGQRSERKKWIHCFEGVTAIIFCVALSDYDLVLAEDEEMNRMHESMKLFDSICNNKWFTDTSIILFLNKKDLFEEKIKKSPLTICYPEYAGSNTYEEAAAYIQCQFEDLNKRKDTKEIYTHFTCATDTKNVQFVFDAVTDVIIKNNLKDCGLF
Method: (§2) BLI experiments were performed using an OctetRED384 instrument from ForteBio. All experiments were performed at 25° C. using BLI buffer (10 mM HEPES pH 7.4, 150 mM NaCl, 1 mM MgCl2, 0.05% Tween-20, 0.1% DMSO, 0.2 mM GppNHp or GDP). Cyclic peptides were diluted to a series of concentrations in BLI buffer plus 10 μM Biotin. Assays were conducted in Greiner 384well, black, flat bottom polypropylene plates containing the protein solutions, BLI buffer plus 10 μM Biotin for dissociation, and serial dilutions of cyclic peptides to be tested.
(§3) Biotinylated proteins were immobilized on Streptavidin biosensors by dipping sensors into plate wells containing protein solutions at a concentration of 100-150 nM. Protein loading is around 2-3 nm. Sensors loaded with proteins were moved and dipped into wells with BLI buffer plus 10 μM Biotin to block unlabeled Streptavidin. Association-dissociation cycles of compounds were started by moving and dipping sensors to cyclic peptides dilutions and BLI buffer plus 10 μM Biotin wells alternatively. Association and dissociation times were carefully determined to ensure full association and dissociation.
(§4) Raw kinetic data collected were processed with the Data Analysis software provided by the manufacturer using single reference subtraction in which buffer-only reference was subtracted (For GN13 analysis). Because GD20 analogs have a low level of background binding, we used a double reference subtraction (buffer-only reference and non-protein-loading reference) method to calculate their kinetics values. The resulting data were analyzed based on a 1:1 binding model from which kon and koff values were obtained and then Kd values were calculated.

GppNHp-bound Gαi1 = biological target: T3, GppNHp-bound Gαi1 (Homo sapiens, UniProt P63096); experiment: Bio-layer interferometry (BLI) binding; settings: highest concentration tested
T3 construct: hexahistidine (N, cleaved yes); made in house; host or cells: Escherichia coli BL21(DE3)
T3 sequence (P63096 with tags, fused parts or gaps): as above
Method: as §2, §3, §4

Gαi = Gαi (Homo sapiens, UniProt P63096); experiment: Nucleotide exchange step (GDP dissociation / GTPγS binding); assay type: biochemical; settings: compared with Gαs
Chain of Gαi (P63096 whole entry): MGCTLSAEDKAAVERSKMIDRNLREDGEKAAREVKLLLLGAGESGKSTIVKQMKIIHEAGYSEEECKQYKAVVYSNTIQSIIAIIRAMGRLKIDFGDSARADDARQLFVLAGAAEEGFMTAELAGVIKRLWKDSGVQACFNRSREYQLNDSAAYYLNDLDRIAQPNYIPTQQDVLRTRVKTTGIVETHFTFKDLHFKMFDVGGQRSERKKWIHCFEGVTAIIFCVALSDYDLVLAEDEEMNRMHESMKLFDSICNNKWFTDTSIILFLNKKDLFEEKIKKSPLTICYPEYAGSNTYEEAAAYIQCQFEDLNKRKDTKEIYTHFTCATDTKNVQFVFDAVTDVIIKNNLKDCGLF
Method: as §1
Gα proteins were diluted to 10 μM with dilution buffer (20 mM HEPES 7.5, 150 mM NaCl, 1 mM MgCl2, 2 mM DTT, and 20 μM GDP) and incubated with 5× stocks of cyclic peptides at room temperature for 2 hours. GTPγS binding was initiated by mixing with the reaction buffer at room temperature (50 nM [35S]GTPγS and 100 μM GTPγS in dilution buffer) at room temperature. […]

GDP-bound Gαs = biological target: T4, GDP-bound Gαs (Homo sapiens, UniProt P63092); experiment: Bio-layer interferometry (BLI) binding kinetics; settings: GDP/Gαs
T4 construct: hexahistidine (N, cleaved yes); made in house; host or cells: Escherichia coli BL21(DE3)
Method: as §2, §3, §4

Gαs [2] = biological target: T1, Gαs; experiment: GTPγS binding assay ([35S]GTPγS); assay type: biochemical; design: made in house; host or cells: Escherichia coli BL21(DE3)
Method: Gα proteins were diluted to 10 μM with dilution buffer (20 mM HEPES 7.5, 150 mM NaCl, 1 mM MgCl2, 2 mM DTT, and 20 μM GDP) and incubated with 5× stocks of cyclic peptides at room temperature for 2 hours. GTPγS binding was initiated by mixing with the reaction buffer at room temperature (50 nM [35S]GTPγS and 100 μM GTPγS in dilution buffer) at room temperature. At various time points, 10 μL of the sample was removed and mixed with 390 μL of ice-cold wash buffer (20 mM HEPES 7.5, 150 mM NaCl, 20 mM MgCl2). The mixture was filtered through a mixed cellulose membrane (25 mm, 0.22 μm). The membrane was washed by ice-cold wash buffer (500 μL×3), put in a 6-mL plastic vial and air-dried (room temperature 1.5 h). 5 mL of CytoScint-ES Liquid Scintillation Cocktail (MP Biomedicals) was added to each vial. After incubation overnight at room temperature, the vial was used for liquid scintillation counting with a LS 6500 Multi-Purpose Scintillation Counter. A standard curve was generated using [35S]GTPγS. The radioactive activity (Counts per minute) of the samples were converted to the GTPγS concentration. The GTPγS binding curves were fitted by the software GraphPad Prism using the following equation to calculate the apparent GTPγS binding rates (kapp): […]
in which “Y” is the concentration of GTPγS that bound to Gα protein at time “X” (minutes).

GppNHp-bound Gαs = GppNHp-bound Gαs (Homo sapiens, UniProt P63092); experiment: Bio-layer interferometry (BLI) binding kinetics; design: hexahistidine (N, cleaved yes); made in house; host or cells: Escherichia coli BL21(DE3); settings: highest concentration tested
Chain of GppNHp-bound Gαs (P63092 with tags, fused parts or gaps isoform P63092-2): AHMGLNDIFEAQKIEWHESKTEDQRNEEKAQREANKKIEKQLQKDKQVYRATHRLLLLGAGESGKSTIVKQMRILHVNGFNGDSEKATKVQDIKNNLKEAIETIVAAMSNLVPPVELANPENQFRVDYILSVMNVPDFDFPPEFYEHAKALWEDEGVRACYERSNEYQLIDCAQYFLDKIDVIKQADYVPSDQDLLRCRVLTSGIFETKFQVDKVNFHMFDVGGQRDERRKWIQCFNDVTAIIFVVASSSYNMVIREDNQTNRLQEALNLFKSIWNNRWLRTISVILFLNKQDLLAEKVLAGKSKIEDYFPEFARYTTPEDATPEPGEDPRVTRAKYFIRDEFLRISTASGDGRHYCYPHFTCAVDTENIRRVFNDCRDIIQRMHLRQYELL
Method: as §2, §3, §4

[3] = test system: HeLa cells stably expressing HaloTag; experiment: Chloroalkane penetration assay (CAPA); assay type: in vitro ADME, human
Source text: We first tested the cell permeability of GD20, as peptide-based chemical probes often suffer from poor cell permeability. […] In order to quantitatively evaluate the cell permeability of GD20, we used a recently developed HaloTag-based assay known as a chloroalkane penetration assay (CAPA) (Figure S6I) (Peraro et al., 2018). HeLa cells stably expressing HaloTag localized to the mitochondrial outer membrane were pulsed with chloroalkane-tagged molecules (ct-molecule), washed, chased with chloroalkane-tagged TAMRA fluorophore (ct-TAMRA), and finally analyzed by flow cytometry. A lower ct-TAMRA fluorescent signal indicates competition from a higher cytosolic concentration of ct-molecule. The carboxyl terminus of GD20 (G15) was conjugated with a chloroalkane tag to make ct-GD20 (FIG. 23A).
The cell lines used for CAPA were HeLa cell lines, generated by Chenoweth and co-workers, that stably express HaloTag exclusively in the cytosol (Peraro et al., 2018). Cells were seeded in a 96-well plate the day before the experiment at a density of 4×10^4 cells per well. The day of the experiment the media was aspirated, and 100 μL of cyclic peptide dilutions in DMEM were added to the cells. Plate was incubated for 19.5 h at 37° C. with 5% CO2. […] The cells were then trypsinized, quenched with DMEM, resuspended in PBS, and analyzed using a benchtop flow cytometer (CytoFLEX, Beckman).

[4] = biological target: Biotinylated Avi-tagged WT Gαs (residues 7-380 of the short isoform of human Gαs), GppNHp-bound (human) (UniProt P63092); experiment: TR-FRET competition: biotinylated Gαs WT (GppNHp-bound) with His-tagged adenylyl cyclase (VC1/IIC2) as the blocked partner; peptide concentration varied
Chain of Biotinylated Avi-tagged WT Gαs (residues 7-380 of the short isoform of human Gαs), GppNHp-bound (human) (P63092 other isoform, or with tags, fused parts or gaps limits assumed): as the sequence (P63092 with tags, fused parts or gaps isoform P63092-2) above

[5] = biological target: T5, Biotinylated His/Avi-tagged Gαs used in the RaPID selection, GppNHp-bound (human, UniProt P63092 7-394, biotin on the Avi tag (BirA co-expressed)); experiment: RaPID comparison selection: peptide-mRNA-cDNA complexes on Gαs-immobilized streptavidin beads, qPCR and sequencing
T5 construct: Immobilized on streptavidin magnetic beads
T5 sequence (P63092 other isoform, or with tags, fused parts or gaps limits assumed): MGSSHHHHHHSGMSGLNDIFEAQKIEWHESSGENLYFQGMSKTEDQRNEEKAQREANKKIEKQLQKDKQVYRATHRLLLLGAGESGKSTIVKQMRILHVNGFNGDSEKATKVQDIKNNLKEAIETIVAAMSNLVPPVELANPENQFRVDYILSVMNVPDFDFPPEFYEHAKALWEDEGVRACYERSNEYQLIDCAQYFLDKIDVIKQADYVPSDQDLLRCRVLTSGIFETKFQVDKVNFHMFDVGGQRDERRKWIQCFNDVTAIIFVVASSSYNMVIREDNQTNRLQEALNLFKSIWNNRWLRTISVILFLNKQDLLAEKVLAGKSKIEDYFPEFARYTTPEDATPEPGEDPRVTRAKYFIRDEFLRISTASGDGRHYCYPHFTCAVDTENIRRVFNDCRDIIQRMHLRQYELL

[6] = biological target: T6, Biotinylated Avi-tagged WT Gαs (residues 7-380 of the short isoform of human Gαs), GDP-bound (human, UniProt P63092 7-394, biotin on the Avi tag (BirA)); experiment: TR-FRET competition: biotinylated Gαs or Gαi (GDP) against His-Gβγ(C68S)
T6 construct: Loaded with GDP; Same polypeptide as m7, other nucleotide state; also called biotinylated Gαs WT
T6 sequence (P63092 other isoform, or with tags, fused parts or gaps limits assumed): as the sequence (P63092 with tags, fused parts or gaps isoform P63092-2) above
Method: (§5) Biotinylated avi-Gαs (6-end, WT) and avi-Gαi (FL, WT) were diluted to 32 nM (8×) using assay buffer (1× PBS 7.4, 2 mM DTT, 0.1% BSA, 2 mM MgCl₂, 0.05% Tween plus 0.5 mM GDP), followed by mixing with a same volume of 8× streptavidin XL665 stock (32 nM in the assay buffer). 8× His-Gβ/γ (C68S) stock (16 nM) and 8× anti-6His-Tb cryptate stock (0.4 μg/mL) were added into the Gα/XL665 mixtures. Finally, 2× stocks of cyclic peptides were added with the protein mixtures. After incubation at room temperature for 2 hour at room temperature. […] FRET Signal was calculated as the ratio of [Read B]/[Read A].

[7] = biological target: T6, Biotinylated Avi-tagged WT Gαs …; experiment: TR-FRET competition: biotinylated GDP-bound Gαs WT against His-Gβγ(C68S)
Method: as §5

[8] = biological target: WT Gαs (purified, steady-state GTPase, GDP dissociation and GTPγS binding assays) (UniProt P63092-2 7-380); experiment: cell-based or functional assay
Chain of WT Gαs (purified, steady-state GTPase, GDP dissociation and GTPγS binding assays) (P63092 other isoform, or with tags, fused parts or gaps limits assumed): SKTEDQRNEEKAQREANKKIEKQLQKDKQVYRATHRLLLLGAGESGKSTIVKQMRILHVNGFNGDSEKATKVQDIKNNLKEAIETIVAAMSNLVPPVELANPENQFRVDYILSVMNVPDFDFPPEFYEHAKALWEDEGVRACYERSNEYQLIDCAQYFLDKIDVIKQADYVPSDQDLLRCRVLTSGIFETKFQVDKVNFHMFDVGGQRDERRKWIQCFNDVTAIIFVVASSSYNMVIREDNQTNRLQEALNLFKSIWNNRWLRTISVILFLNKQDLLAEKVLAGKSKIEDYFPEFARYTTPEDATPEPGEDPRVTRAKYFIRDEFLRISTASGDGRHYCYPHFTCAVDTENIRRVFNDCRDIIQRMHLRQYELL

CC[C@H](C)[C@@H]1NC(=O)[C@H](CC(C)C)NC(=O)[C@@H](Cc2ccc(O)cc2)NC(=O)CSC[C@@H](C(=O)NCC(N)=O)NC(=O)[C@@H]2CCCN2C(=O)[C@H](CC(C)C)NC(=O)[C@H](CC(N)=O)NC(=O)[C@H](Cc2ccccc2)NC(=O)[C@H](C)NC(=O)[C@H](Cc2c[nH]c3ccccc23)NC(=O)[C@H](CCC(N)=O)NC(=O)[C@H](CCCNC(=N)N)NC(=O)[C@H](Cc2ccccc2)NC(=O)[C@H]([C@@H](C)O)NC1=O [GD20] ({CH2CO}-[dY]LITFRQWAFNLPCG-NH2; thioether N-14)
effect on Gαs GDP dissociation rates (koff) (Gαs [1]): drastically reducing | binding to GDP-bound Gαi1 (GDP-bound Gαi1): no detectable binding | binding to GppNHp-bound Gαi1 (GppNHp-bound Gαi1): no detectable binding | sensitivity of the nucleotide exchange step of Gαi (Gαi): much less sensitive | Kd (GDP-bound Gαs): 31.4 ± 0.7 nM | koff (GDP-bound Gαs): 0.00343 s⁻¹ | kon (GDP-bound Gαs): 109000 M⁻¹ s⁻¹ | effect on the apparent rate of GTPγS binding (kapp) to Gαs (Gαs [2]): drastically reducing | binding to GppNHp-bound Gαs (GppNHp-bound Gαs): no detectable binding

CC[C@H](C)[C@@H]1NC(=O)[C@H](CC(C)C)NC(=O)[C@@H](Cc2ccc(O)cc2)NC(=O)CSC[C@@H](C(=O)NCC(=O)NCCOCCOCCCCCCCl)NC(=O)[C@@H]2CCCN2C(=O)[C@H](CC(C)C)NC(=O)[C@H](CC(N)=O)NC(=O)[C@H](Cc2ccccc2)NC(=O)[C@H](C)NC(=O)[C@H](Cc2c[nH]c3ccccc23)NC(=O)[C@H](CCC(N)=O)NC(=O)[C@H](CCCNC(=N)N)NC(=O)[C@H](Cc2ccccc2)NC(=O)[C@H]([C@@H](C)O)NC1=O [ct-GD20] ({CH2CO}-[dY]LITFRQWAFNLPCG-{NH(CH2CH2O)2(CH2)6Cl}; thioether N-14)
cell permeability (CAPA) [3]: cell permeable

B1: GN10 (peptide)
peptide: Ac-[dY]HEQFDNFCDLWCG-NH2
modifications: thioether (positions not given here); also: thioether partner Cys9 or Cys13 not settled
IC50 (read off the curve) [4]: 200 nM | fold selectivity for GppNHp-bound over GDP-bound Gαs [5]: > 100 fold

B2: GD20 (peptide)
peptide: {CH2CO}-[dY]LITFRQWAFNLPCG-NH2
modifications: thioether N-14
SMILES: CC[C@H](C)[C@@H]1NC(=O)[C@H](CC(C)C)NC(=O)[C@@H](Cc2ccc(O)cc2)NC(=O)CSC[C@@H](C(=O)NCC(N)=O)NC(=O)[C@@H]2CCCN2C(=O)[C@H](CC(C)C)NC(=O)[C@H](CC(N)=O)NC(=O)[C@H](Cc2ccccc2)NC(=O)[C@H](C)NC(=O)[C@H](Cc2c[nH]c3ccccc23)NC(=O)[C@H](CCC(N)=O)NC(=O)[C@H](CCCNC(=N)N)NC(=O)[C@H](Cc2ccccc2)NC(=O)[C@H]([C@@H](C)O)NC1=O
notes: also called cyclic peptide GD20
fold selectivity for Gαs over Gαi [6]: ≥ 100 fold | IC50 [7]: 18.4 nM | IC50, inhibition of Gαs steady-state GTPase activity [8]: 1150 nM
